The target in assay [1] is Disintegrin and metalloproteinase domain-containing protein 17 (Homo sapiens, UniProt P78536). Nature of the assay: exosite inhibitors of ADAM17, dose response, biochemical (AID 743260).
Assay [2] in a line: CMV-driven luciferase expression suppression in HEK293 – cell-based, luminescence, dry powder, counter-screen for Pax8 inhibitor project, dose response (AID 743020). The class given is functional. (The purpose of a counterscreen is to sort out artefacts and off-target activity.)
For the next assay, the target named is Paired box protein Pax-8 (Homo sapiens, UniProt Q06710). Nature of the assay: PAX8 transcriptional activity inhibition in RMG-I – RMG-I cells, luciferase, cherry-pick, dose response (AID 687027).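 Also: luciferase reporter driven by Pax8 target thyroperoxidase promoter measured by SteadyGlo luminescence.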 The format is functional, cell-based.
Chain of Paired box protein Pax-8 (Q06710 whole entry): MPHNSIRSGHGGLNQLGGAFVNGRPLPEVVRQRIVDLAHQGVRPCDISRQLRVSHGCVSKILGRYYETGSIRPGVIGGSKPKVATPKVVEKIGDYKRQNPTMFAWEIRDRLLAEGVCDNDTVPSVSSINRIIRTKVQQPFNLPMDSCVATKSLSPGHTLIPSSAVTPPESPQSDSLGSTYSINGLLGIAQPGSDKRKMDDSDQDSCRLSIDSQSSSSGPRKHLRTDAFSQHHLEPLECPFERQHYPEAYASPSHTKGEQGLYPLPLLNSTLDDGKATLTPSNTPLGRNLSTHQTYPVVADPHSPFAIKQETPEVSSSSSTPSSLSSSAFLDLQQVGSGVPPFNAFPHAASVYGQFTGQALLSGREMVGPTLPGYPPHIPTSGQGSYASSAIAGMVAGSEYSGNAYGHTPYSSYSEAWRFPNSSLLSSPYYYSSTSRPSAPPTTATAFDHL
The nature of assay [3]: viability loss in THP-1 monocytes – THP-1 cells, cytotoxicity control for Vif-APOBEC3G degradation inhibitor project, dose response (AID 1117359). The settings on record: THP-1. The class given is functional.
Assay [4] in a line: Fluorescence-based cell-based high throughput dose response assay for inhibitors of the interaction of nucleotide-binding oligomerization domain containing 2 (NOD2) and the receptor-interacting serine-threonine kinase 2 (RIPK2). Particulars: Homo sapiens. The format is functional.
Assay [5] is described as follows: viability loss in HEK293T cells – cell-based, cherry-picks, cytotoxicity control for HIV Vif inhibitor project, dose response (AID 652208). The class given is functional.
A short description of assay [6]: viability loss in A549 lung cancer cells – cell-based, cherry-picks, […], cytotoxicity control, dose response (AID 1053119). The format is functional.
Assay [7] is described as follows: viability loss in HEK293 kidney cells – cell-based, cherry-picks, set 5, cytotoxicity control, dose response (AID 1053117). The class given is functional.
Assay [8] can be described thus: viability loss in HepG2 hepatoma cells – cell-based, cherry-picks, set 5, cytotoxicity control, dose response (AID 1053118). The class given is functional.
Assay [9] can be described thus: Cytotoxicity screening for potential Inhibitors of Bacterial Capsule Biogenesis (4). The format is functional.

Activity calls are given as the source filed them. Some results are limits rather than exact numbers.

Chain of Disintegrin and metalloproteinase domain-containing protein 17 (P78536 whole entry, the tested form may be a part): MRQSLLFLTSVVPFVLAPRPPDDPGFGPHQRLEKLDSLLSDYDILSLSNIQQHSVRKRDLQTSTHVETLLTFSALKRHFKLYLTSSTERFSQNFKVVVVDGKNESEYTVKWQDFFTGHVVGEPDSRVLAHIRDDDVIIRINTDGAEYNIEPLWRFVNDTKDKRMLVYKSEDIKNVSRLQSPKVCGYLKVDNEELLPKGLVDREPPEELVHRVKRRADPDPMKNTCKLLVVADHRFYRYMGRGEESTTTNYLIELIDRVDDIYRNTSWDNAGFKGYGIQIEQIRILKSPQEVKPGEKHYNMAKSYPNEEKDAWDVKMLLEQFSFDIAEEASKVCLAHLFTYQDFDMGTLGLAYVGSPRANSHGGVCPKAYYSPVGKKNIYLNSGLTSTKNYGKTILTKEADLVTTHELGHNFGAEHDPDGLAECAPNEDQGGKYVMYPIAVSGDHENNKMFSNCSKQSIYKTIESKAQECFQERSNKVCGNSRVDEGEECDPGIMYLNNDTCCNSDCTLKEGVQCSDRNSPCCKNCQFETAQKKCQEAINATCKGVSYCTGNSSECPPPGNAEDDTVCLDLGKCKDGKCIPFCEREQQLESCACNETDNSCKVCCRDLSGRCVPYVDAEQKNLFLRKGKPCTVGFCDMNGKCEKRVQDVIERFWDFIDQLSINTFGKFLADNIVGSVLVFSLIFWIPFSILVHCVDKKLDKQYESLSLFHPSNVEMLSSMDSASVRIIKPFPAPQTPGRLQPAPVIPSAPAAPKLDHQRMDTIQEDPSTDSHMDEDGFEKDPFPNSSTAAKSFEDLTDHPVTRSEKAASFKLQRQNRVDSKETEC

For orientation: IC50 means the concentration that gives 50% inhibition. `CCOc1ccc(NC(=O)CC2SC(=O)N(c3ccccc3)C2=O)cc1` (stereo unspecified): the IC50 in assay [1] is 5.73 µM (active).
Usually AC50 stands for the concentration giving half of the maximal activity seen. On to `CC(=O)c1cc(NC(=O)c2cccc(C(F)(F)F)c2)c(=O)oc1C`, for which the AC50 was < 9 µM (active) in assay [2] and 15.8 µM (active) at Paired box protein Pax-8.
For orientation: CC50 means the concentration at which the toxic effect on the cells reaches its halfway point. Take `C=CC(=O)N1C/C(=C/c2ccc(F)cc2)C(=O)/C(=C\c2ccc(F)cc2)C1`: the AC50 is 2.36 µM (active) on Paired box protein Pax-8 and 1.4 µM (active) in [5]. The 50% cytotoxic concentration (CC50) in assay [3] is 570 nM (active). For the same molecule, the half-inhibitory concentration (IC50) in [4] was 3.71 µM (active).
As to `CO[C@@H]1CN(C)C(=O)c2ccc(NC(=O)c3ccc(-c4ccccc4)cc3)cc2OC[C@H](C)NC[C@H]1C`, the half-maximal activity concentration (AC50) in assay [6] was 13.6 µM (active); in assay [7], 14 µM (active); in assay [8] it was 11.3 µM (active).
Regarding `COc1cc(NC(=O)c2ccc3nc(C)sc3c2)ccn1`, the CC50 in assay [9] is > 300 µM (inactive).

The values are drawn from ChEMBL document CHEMBL1201862, “PubChem BioAssay data set” (2004).
